According to patent US7947701B2, “Dual molecules containing peroxy derivative, the synthesis and therapeutic applications thereof” (Sanofi-Aventis, priority 2003, dated 2011):
Read-outs that look alike come from different tables or passages of the source.

Legend:
[1] = test system: P. falciparum FcM29-Cameroon strain; test: Antimalarial chemosensitivity test (radioactive micromethod, tritiated hypoxanthine incorporation) on FcM29-Cameroon strain; type: cell-based; conditions: Plasmodium falciparum, Erythrocyte, read-out: IC50 (concentration required to inhibit parasite growth by 50%)
Method: (§1) The P. falciparum strains are cultured continuously according to the method of Trager and Jensen (Science, 1976, 193, 673-675): the parasites are maintained in human red blood cells (O±), diluted to a blood parasite level of 2% in RPMI 1640 medium supplemented with 25 mM of Hepes+24 mM NaHCO3+2 mM L-glutamine and with 5% of human serum of all groups. The parasites are incubated at 37° C. in a humid atmosphere and at 5% CO2.
The antimalarial activity tests are carried out according to the radioactive micromethod of Desjardins et al. (Antimicrob. Agents Chemother., 1979, 16, 710-718). Each molecule is tested in triplicate. The assays are carried out in 96-well microplates. The P. falciparum strains are cultured in solutions of RPMI 1640 supplemented with 5% of human serum with a haematocrit at 2% and a blood parasite level at 1.5%. For each assay, the parasites are incubated with decreasing concentrations of the test compounds for 48 h at 37° C., in a humid atmosphere and at 5% CO2. Artemisinin and chloroquine diphosphate are used as reference molecules. The first dilution of the test compounds is effected at 1 mg/ml in dimethyl sulphoxide. The dilution range for the successive daughter solutions is also prepared in dimethyl sulphoxide. Each daughter dilution is then diluted to 1/50th in RPMI 1640 supplemented with 5% of human serum, all the dilutions being carried out at 37° C. These dilutions are then added to the parasites in culture in the microplates. After addition of the test compound, the parasites are cultured in RPMI 1640 containing 5% of human serum and 1% of dimethyl sulphoxide. The parasite growth is measured by incorporation of tritiated hypoxanthine (added 24 h after the beginning of exposure to the test compound) and compared to the incorporation in the absence of the test compound (taken as 100%). The IC50 values (concentrations required to inhibit parasite growth by 50%) are determined by plotting the percentage inhibition as a function of the logarithm of the dose, using the GraphPad Prism 4® processing software (GraphPad Software Inc., 5755 Oberlin Drive, #110, San Diego, Calif. 92121, USA).

[2] = test system: P. falciparum FcB1-Columbia strain; test: Antimalarial chemosensitivity test (radioactive micromethod, tritiated hypoxanthine incorporation) on FcB1-Columbia strain; type: cell-based; conditions: Plasmodium falciparum, read-out: IC50 (concentration required to inhibit parasite growth by 50%)
Method: as §1
The antimalarial activity tests are carried out according to the radioactive micromethod of Desjardins et al. (Antimicrob. Agents Chemother., 1979, 16, 710-718). Each molecule is tested in triplicate. The assays are carried out in 96-well microplates. The P. falciparum strains are cultured in solutions of RPMI 1640 supplemented with 5% of human serum with a haematocrit at 2% and a blood parasite level at 1.5%. For each assay, the parasites are incubated with decreasing concentrations of the test compounds for 48 h at 37° C., in a humid atmosphere and at 5% CO2. Artemisinin and chloroquine diphosphate are used as reference molecules. The first dilution of the test compounds is effected at 1 mg/ml in dimethyl sulphoxide. […] The parasite growth is measured by incorporation of tritiated hypoxanthine (added 24 h after the beginning of exposure to the test compound) and compared to the incorporation in the absence of the test compound (taken as 100%). […]

SMILES | IC50 ([1]; 48 h) | IC50 ([2]; Erythrocyte, FcB1-Columbia strain (moderately chloroquine resistant), in human red blood cells, 48 h incubation) | IC50 ([1]; FcM29-Cameroon strain (very strongly chloroquine resistant), in human red blood cells, 48 h incubation) | IC50 ([2]; FCB1, Erythrocyte, 48 h)
Clc1ccc2c(NCCN3CCC4(CC3)OOC3(O4)C4CC5CC(C4)CC3C5)ccnc2c1 (stereo not shown) [PA1021, 7-Chloro-N-[2-(1H-dispiro[piperidine-4,3′-[1,2,4]trioxolane-5′,2″-tricyclo[3.3.1.1^3,7]decan]-1-yl)ethyl]quinolin-4-amine] | 6 nM |  |  | 
C[C@@H]1CC[C@H]2[C@@H](C)C(=O)O[C@@H]3O[C@@]4(C)CC[C@@H]1[C@]32OO4 [artemisinin] |  | 11 nM | 5 nM | 
CCN(CC)CCCC(C)Nc1ccnc2cc(Cl)ccc12 (stereo not shown) [chloroquine] | 258 nM |  |  | 66 nM
CC(C)C1=C[C@H]2OC3(CCN(CCCNc4ccnc5cc(Cl)ccc45)CC3)OO[C@@]2(C)CC1 [PA1011] | 13 nM |  |  | 
CN(C)c1ccc2nccc(NCCN3CCC4(CC3)OOC3(O4)C4CC5CC(C4)CC3C5)c2c1 (stereo not shown) [PA1026, N^4-[2-(1H-Dispiro[piperidine-4,3,-[1,2,4]trioxolane-5′,2″-tricyclo[3.3.1.1^3,7]decan]-1-yl)ethyl]-N^6,N^6-dimethylquinoline-4,6-diamine] | 4.4 nM |  |  | 
